Like-named read-outs stand apart in the source and are kept apart here.
How the values were obtained:
[1] = tested on: muscarinic acetylcholine receptor (mAChR); experiment: Protection of mAChR from inactivation by the endogenous LMW inhibitor, [3H]QNB (antagonist) binding; design: species or system human; conditions: for protection of the mAChR from inactivation by the LMW inhibitor (in words): FIGS. 4-7, 15, 17, 19; for EC50: read-out: concentration that provides 50% protection of the mAChR
[2] = target: muscarinic acetylcholine receptor (mAChR); conditions: read-out: concentration that provides 50% protection of the mAChR from damage by PbCl2, 3H-QNB binding, FIG. 20
[3] = target: muscarinic acetylcholine receptor (mAChR); experiment: Protection of mAChR from inactivation by heme and peroxide, [3H]QNB (antagonist) binding; design: species or system human; conditions: 3H-QNB binding, FIG. 16
[4] = LMW inhibitor, 3H-QNB binding, FIGS. 11, 13, 14

Molecule	protection of the mAChR from inactivation by the LMW inhibitor (in words) ([1]; LMW inhibitor, 3H-QNB binding)	EC50 [1, 4] [nM]	further results
C=CC1=C(C)/C(=C/C2=NC(=C\c3[nH]c(/C=C4\NC(=O)C(C)=C4C=C)c(C)c3CCC(=O)O)/C(CCC(=O)O)=C2C)NC1=O [biliverdin]	–	3000	–
CC(C)c1cc2c(c(O)c1O)[C@@]13CCCC(C)(C)[C@@H]1C[C@@H]2OC3=O [carnosol]	–	–	protection of the mAChR from inactivation ([1]; at 1 μM, LMW inhibitor, 3H-QNB binding, FIG. 12): 100%
O=c1c(O)c(-c2cc(O)c(O)c(O)c2)oc2cc(O)cc(O)c12 [myricetin]	–	400	–
O=P(O)(O)OP(=O)(O)O [pyrophosphate]	–	–	EC50 ([1]; inactivation by LMW inhibitor or heme and peroxide, loss of antagonist (3H-QNB) and agonist (3H-Oxotremorine M) binding, FIGS. 1-3, not specified further): ~1000 nM; EC50 [2]: ~57000 nM
O=c1c(O)c(-c2ccc(O)c(O)c2)oc2cc(O)cc(O)c12 [quercetin]	–	240	–

More lines, main results first:

protection of the mAChR from inactivation by the LMW inhibitor (in words) ([1]; LMW inhibitor, 3H-QNB binding)	EC50 [1, 4] [nM]	Molecule	further results
protect the mAChR from inactivation	–	Nc1ncnc2c1ncn2[C@@H]1O[C@H](COP(=O)(O)OP(=O)(O)NP(=O)(O)O)[C@@H](O)[C@H]1O [adenylylimidodiphosphate]	–
protect the mAChR from inactivation	–	O=P(O)(O)OP(=O)(O)OP(=O)(O)O [tripolyphosphate]	–
protected the mAChR from inactivation	–	catalase	amount that provided 50% protection from inactivation by heme and peroxide [3]: 0.34 units/mL

From patent US9072756B2, “Methods and compositions for increasing the efficacy of an agent that directly or indirectly affects a muscarinic receptor through administration of a pyrophosphate analog” (HealthPartners Research Foundation, priority 2000, dated 2015)
